Reference: ChEMBL document CHEMBL3045940, “In vivo peritoneal antiangiogenesis and in vitro antiproliferative properties of some bischalcone derivatives” (Med Chem Res, 2012)
Active and inactive are the calls of the source. No cut-off for these calls is given here.

Assays:
EAT [1] = assay: Induction of apoptosis in Mus musculus (mouse) EAT cells xenografted in Mus musculus Swiss albino (mouse) assessed as DNA fragmentation drug administered on day 7,9 and 11 after tumor transplantation by agarose gel electrophoresis; assay type: functional, cell-based
EAT [2] = assay: Antitumor activity against Mus musculus (mouse) EAT cells xenografted in Mus musculus Swiss albino (mouse) assessed as decrease in cell viability drug administered on day 7,9 and 11 after tumor transplantation; assay type: functional, cell-based
EAT [3] = assay: Antitumor activity against Mus musculus (mouse) EAT cells xenografted in Mus musculus Swiss albino (mouse) assessed as decrease in tumor burden measured as reduction in body weight drug administered on day 7,9 and 11 after tumor transplantation; assay type: functional, cell-based
HeLa = assay: Antiproliferative activity against Homo sapiens (human) HeLa cells after 48 hr by MTT assay; assay type: functional, cell-based
HepG2 [4] = assay: Antiproliferative activity against Homo sapiens (human) HepG2 cells after 48 hr by MTT assay; assay type: functional, cell-based; conditions: HepG2, 48 h
EAT [5] = assay: Induction of apoptosis in Mus musculus (mouse) EAT cells xenografted in Mus musculus Swiss albino (mouse) assessed as appearance of condensed nuclei, membrane blebbing and formation of apoptotic bodies drug administered on day 7,9 and 11 after tumor transplantation by Giemsa, ethidium bromide/acridine orange staining analysis; assay type: functional, cell-based
Mus musculus = assay: Antiangiogenic activity in EAT cells xenografted in Mus musculus Swiss albino (mouse) assessed as reduction in vasculaization in peritoneal cavity drug administered on day 7,9 and 11 after tumor transplantation; assay type: functional, organism-based
HepG2 [6] = assay: Induction of apoptosis in Homo sapiens (human) HepG2 cells assessed as DNA fragmentation at 10 uM after 24 hr by agarose gel electrophoresis; assay type: functional, cell-based
[7] = Antitumor activity against Mus musculus (mouse) EAT cells xenografted in Mus musculus Swiss albino (mouse) assessed as reduction in ascites volume drug administered on day 7,9 and 11 after tumor transplantation […]; assay type: functional

| Structure (SMILES) | Activity (EAT [1]) | inhibition (EAT [2]) | inhibition (EAT [3]) | IC50 (HeLa) [µM] | IC50 (HepG2 [4]) [µM] | Activity (EAT [5]) | inhibition (Mus musculus) | Activity (HepG2 [6]) | inhibition (INH) [7] [%] |
| --- | --- | --- | --- | --- | --- | --- | --- | --- | --- |
| COc1ccc(/C=C2\CC/C(=C\c3ccc(OC)c(OC)c3)C2=O)cc1OC | Active | Active | Active | 110 | 106 | Active | Active | Active | 70 |
| COc1cc(/C=C2\CC/C(=C\c3ccc(O)c(OC)c3)C2=O)ccc1O | Active | Active | Active | 42 | 44 | Active | Active | Active | 70 |
| O=C1/C(=C/c2ccc(F)cc2)CC/C1=C\c1ccc(F)cc1 | Active | Active | Active | 39 | 48 | Active | Active | Active | 70 |
